Consider 10 compounds from US4914127A, “3-Demethylmevalonic acid derivatives, a process for their preparation pharmaceutical products based on these compounds, their use and intermediates” (Hoechst Aktiengesellschaft, priority 1985, dated 1990).

The structures appear in SMILES notation.

One assay has as its system 3-hydroxy-3-methylglutaryl-coenzyme-A reductase (HMG-CoA reductase).
Test: not given
The following applies: in words; cited from earlier work.
For the compound `CC[C@H](C)C(=O)O[C@H]1CCC=C2C=C[C@H](C)[C@H](CC[C@@H]3C[C@@H](O)CC(=O)O3)[C@H]21` [Compactin], the “inhibition of HMG-CoA reductase” value is on record as “inhibition”.

The target of the next assay is T1, HMG-CoA reductase (Rattus norvegicus, UniProt P51639).
T1 construct: solubilized enzyme preparations from liver microsomes of rats; from tissue; host or cells: liver microsomes of cholestyramine-induced rats
T1 sequence (P51639 1-887): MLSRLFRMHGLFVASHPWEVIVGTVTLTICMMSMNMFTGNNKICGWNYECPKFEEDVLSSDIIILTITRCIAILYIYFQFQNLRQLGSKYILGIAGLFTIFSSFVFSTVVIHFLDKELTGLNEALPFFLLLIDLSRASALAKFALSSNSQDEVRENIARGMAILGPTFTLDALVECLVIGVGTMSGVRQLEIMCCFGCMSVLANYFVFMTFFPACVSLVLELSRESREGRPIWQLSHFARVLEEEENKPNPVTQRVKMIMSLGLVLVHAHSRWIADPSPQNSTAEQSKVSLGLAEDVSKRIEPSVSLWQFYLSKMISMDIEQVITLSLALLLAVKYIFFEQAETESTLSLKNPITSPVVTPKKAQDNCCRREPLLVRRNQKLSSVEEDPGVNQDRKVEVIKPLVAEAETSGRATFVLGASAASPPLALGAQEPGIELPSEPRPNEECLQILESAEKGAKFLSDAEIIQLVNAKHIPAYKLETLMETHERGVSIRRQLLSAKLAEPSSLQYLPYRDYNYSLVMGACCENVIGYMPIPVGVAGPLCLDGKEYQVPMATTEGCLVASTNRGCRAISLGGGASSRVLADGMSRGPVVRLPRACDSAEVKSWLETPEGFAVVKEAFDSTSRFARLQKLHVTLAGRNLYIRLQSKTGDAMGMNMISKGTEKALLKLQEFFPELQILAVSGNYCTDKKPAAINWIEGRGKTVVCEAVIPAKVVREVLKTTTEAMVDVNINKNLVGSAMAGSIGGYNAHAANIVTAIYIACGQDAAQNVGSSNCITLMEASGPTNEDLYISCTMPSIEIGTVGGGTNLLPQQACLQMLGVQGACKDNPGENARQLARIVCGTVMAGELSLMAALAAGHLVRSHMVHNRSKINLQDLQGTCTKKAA
The assay is described as follows: HMG-CoA reductase activity in solubilized enzyme preparations from liver microsomes of rats. The settings on record: 14C-HMG-CoA substrate, mean from 3 parallel samples, read-out: IC50 [M], inhibition of HMG-CoA reductase. In kind it is biochemical. The protocol: 1. HMG-CoA reductase activity in enzyme preparations
The HMG-CoA reductase activity was measured on solubilized enzyme preparations from liver microsomes of rats which, after the day/night rhythm had been changed, were induced with cholestyramine (®Cuemid). The substrate used was (S,R) ^14 C-HMG-CoA, and the concentration of NADPH was maintained during the incubation by a regenerating system. ^14 C-Mevalonate was removed from the substrate and other products (for example ^14 C-HMG) by column elution, the elution profile for each individual sample being determined. Constant inclusion of ^3 H-mevalonate was dispensed with because the determination was of the relative inhibitory effect. In each series of tests, the control containing no enzyme, and the normal mixture containing enzyme (=100%) and those with added products, final concentration 10^-5 to 10^-9 M, were treated together. Each individual figure was formed as the mean from 3 parallel samples. The signficance of the differences in the means between samples containing no product and those containing product was assessed by the t test.
Using the method described above, the following figures for the inhibition of HMG-CoA reductase were determined for the compounds according to the invention, for example: […]
In the case of `O=C1C[C@H](O)C[C@@H](/C=C/c2c(Cl)cccc2CC2CCCCC2)O1` [16 ac], the IC50 (commonly the midpoint of a concentration-inhibition curve) was determined as 7.1e-08 M.

Turning to `Cc1cccc(CCC2CCCCC2)c1/C=C/[C@@H]1C[C@@H](O)CC(=O)O1` [16 u], the IC50 came out at 6.5e-07 M.

Consider `O=C1C[C@H](O)C[C@@H](/C=C/c2ccccc2CCc2ccc(F)cc2)O1` [16 g], for which the IC50 came out at 9e-07 M.

`O=C1C[C@H](O)C[C@@H](/C=C/c2c(Cl)cccc2Cc2ccc(Cl)cc2)O1` [16 ab]: the concentration for half-maximal inhibition (IC50) came to 2.3e-07 M.

With `Cc1cccc(Cc2ccc(Cl)cc2)c1/C=C/[C@@H]1C[C@@H](O)CC(=O)O1` [16 y], the IC50 was 2.8e-07 M.

Turning to `O=C1C[C@H](O)C[C@@H](/C=C/c2ccccc2CC2CCCCC2)O1` [16 j], the half-maximal inhibitory concentration (IC50) amounted to 9e-08 M.

`O=C1C[C@H](O)C[C@@H](/C=C/c2ccccc2Cc2ccc(Cl)cc2)O1` [16 l]: the 50% inhibitory concentration (IC50) came to 8e-07 M.

As to `O=C1C[C@H](O)C[C@@H](/C=C/c2c(Cl)cc(Cl)cc2CC2CCCCC2)O1` [16 z], the IC50 amounted to 1.9e-08 M.

The target of another assay is T2, HMG-CoA reductase (in HEP-G2 cells) (Homo sapiens, UniProt P04035).
T2 construct: endogenous in cells; host or cells: HEP-G2 cells
T2 sequence (P04035 1-888): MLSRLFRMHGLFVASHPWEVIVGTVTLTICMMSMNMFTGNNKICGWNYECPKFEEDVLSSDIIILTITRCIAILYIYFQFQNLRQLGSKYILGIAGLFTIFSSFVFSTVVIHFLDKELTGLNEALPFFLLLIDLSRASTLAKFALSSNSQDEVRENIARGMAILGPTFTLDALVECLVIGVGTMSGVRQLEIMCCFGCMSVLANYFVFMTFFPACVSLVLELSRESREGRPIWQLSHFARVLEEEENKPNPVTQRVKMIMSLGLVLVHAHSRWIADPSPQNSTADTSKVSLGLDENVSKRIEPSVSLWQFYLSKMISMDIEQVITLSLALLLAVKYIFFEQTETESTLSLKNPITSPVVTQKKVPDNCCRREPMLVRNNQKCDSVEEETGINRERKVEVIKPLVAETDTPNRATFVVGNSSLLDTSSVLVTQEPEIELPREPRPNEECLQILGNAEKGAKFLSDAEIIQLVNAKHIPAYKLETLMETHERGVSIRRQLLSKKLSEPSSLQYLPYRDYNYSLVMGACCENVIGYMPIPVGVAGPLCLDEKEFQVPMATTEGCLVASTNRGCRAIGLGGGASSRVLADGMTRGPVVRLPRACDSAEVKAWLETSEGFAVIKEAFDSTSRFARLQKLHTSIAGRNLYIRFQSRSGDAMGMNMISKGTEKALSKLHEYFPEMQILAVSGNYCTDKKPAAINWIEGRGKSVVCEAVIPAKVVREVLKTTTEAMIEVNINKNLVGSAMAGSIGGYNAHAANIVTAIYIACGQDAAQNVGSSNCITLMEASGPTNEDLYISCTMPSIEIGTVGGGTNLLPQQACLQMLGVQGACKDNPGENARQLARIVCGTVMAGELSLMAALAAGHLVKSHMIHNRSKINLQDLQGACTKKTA
Nature of the assay: Suppression or inhibition of HMG-CoA reductase in cell cultures (HEP-G2 cells; method described for fibroblasts, L cells). In kind it is cell-based.
Settings: not given
The protocol:
2. Suppression or inhibition of HMG-CoA reductase in cell cultures of fibroblasts.
Monolayers of fibroblasts (L cells) in lipoprotein-free nutrient medium were incubated with appropriate concentrations of test substances for a specified period (for example 3 hours) and then the HMG-CoA reductase activity of the cells was determined by modification of the method of Chang et al. (J. Biol. Chem. 256, 6174 (1981)). For this purpose, the cell extracts were incubated with D,L-[^3 H]-HMG-CoA, and the product [^3 H]-mevalonate formed from the cells by the action of the HMG-CoA reductase activity present was, after cyclization to [^3 H]-mevalonolactone, separated from the starting material by thin-layer chromatography and, by use of an internal standard of [^14 C]-mevalonate, the amount of [^3 H]-mevalonate formed in unit time was determined and related to the amount of cellular protein.
Consider `O=C1C[C@H](O)C[C@@H](/C=C/c2c(Cl)cccc2CC2CCCCC2)O1` [16 ac], for which the concentration for half-maximal inhibition (IC50) was determined as 3200 nM.

With `Cc1cccc(CCC2CCCCC2)c1/C=C/[C@@H]1C[C@@H](O)CC(=O)O1` [16 u], it took 200000 nM to reach half-maximal inhibition (IC50).

`O=C1C[C@H](O)C[C@@H](/C=C/c2ccccc2CCc2ccc(F)cc2)O1` [16 g] came in with a half-maximal inhibitory concentration (IC50) of 500000 nM.

Consider `O=C1C[C@H](O)C[C@@H](/C=C/c2c(Cl)cccc2Cc2ccc(Cl)cc2)O1` [16 ab], for which the IC50 came to 210000 nM.

`O=C1C[C@H](O)C[C@@H](/C=C/c2ccccc2CC2CCCCC2)O1` [16 j] had an IC50 of 380000 nM.

As for `O=C1C[C@H](O)C[C@@H](/C=C/c2c(Cl)cc(Cl)cc2CC2CCCCC2)O1` [16 z], the IC50 stood at 1900 nM.

Tested on in a further assay: not given
Test: not given
The following applies: in human trials; cited from earlier work.
For the compound `CC(O)(CC(=O)O)CC(=O)O` [3-Hydroxy-3-methylglutaric acid], the cholesterol-lowering action result is listed as “significant cholesterol-lowering action”.

Tested on in another assay: not given
Test: not given
The following applies: in the rat; cited from earlier work.
With `CC(O)(CC(=O)O)CC(=O)O` [3-Hydroxy-3-methylglutaric acid], the cholesterol-lowering action result is listed as “significant cholesterol-lowering action”.
